Some results are limits rather than exact numbers.

For this assay, the system named is Phakopsora pachyrhizi. The assay can be described thus: Phakopsora pachyrhizi Test in Soybean (preventive spray). The class given is in vivo. Particulars: preventive spray on Soybean plants, inoculated one day after treatment, disease severity vs untreated control. As for the experimental part:
Example 7: Phakopsora pachyrhizi Test in Soybean Compounds were dissolved in 2% dimethyl sulfoxide/acetone and then mixed with water containing an emulsifier to a calibrated spray volume of 50 mL. This 50 mL spray solution was poured into spray bottles for further applications. To test the preventive activity of compounds, healthy young Soybean plants, raised in the greenhouse, were sprayed with the active compound preparation at the stated application rates inside the spray cabinets using hollow cone nozzles. One day after treatment, the plants were inoculated with a spore suspension containing 2×10^5Phakopsora pachyrhizi conidia. The inoculated plants were then kept in a greenhouse chamber at 22-24° C. temperature and 80-90% relative humidity for disease expression. A visual assessment of the compound's performance was carried out by rating the disease severity (0-100% scale) on treated plants 3, 7, 10 and 15 days after application. Efficacy (% control) of the compounds was calculated by comparing the disease rating in the treatment with the one of the untreated control. The sprayed plants were also assessed for plant compatibility by recording symptoms like necrosis, chlorosis and stunting.

In turn, `O=C(COc1ccccc1F)c1ccc(-c2noc(C(F)(F)F)n2)cc1` [Compound 1, 2-(2-fluorophenoxy)-1-(4-(5-(trifluoromethyl)-1,2,4-oxadiazol-3-yl)phenyl)ethan-1-one] showed a pest or weed control at 500 ppm not below 70%.

For `COc1ccc(OCC(=O)c2ccc(-c3noc(C(F)(F)F)n3)cc2)cc1` [Compound 2, 2-(4-methoxyphenoxy)-1-(4-(5-(trifluoromethyl)-1,2,4-oxadiazol-3-yl)phenyl)ethan-1-one], the pest or weed control at 500 ppm is not below 70%.

On to `O=C(COc1cccc(F)c1)c1ccc(-c2noc(C(F)(F)F)n2)cc1` [Compound 3, 2-(3-fluorophenoxy)-1-(4-(5-(trifluoromethyl)-1,2,4-oxadiazol-3-yl)phenyl)ethan-1-one], for which the pest or weed control at 500 ppm was not below 70%.

`O=C(COc1ccc(F)cc1)c1ccc(-c2noc(C(F)(F)F)n2)cc1` [Compound 4, 2-(4-fluorophenoxy)-1-(4-(5-(trifluoromethyl)-1,2,4-oxadiazol-3-yl)phenyl)ethan-1-one] had a pest or weed control at 500 ppm not below 70%.

`O=C(COc1ccc(Br)cc1)c1ccc(-c2noc(C(F)(F)F)n2)cc1` [Compound 5, 2-(4-bromophenoxy)-1-(4-(5-(trifluoromethyl)-1,2,4-oxadiazol-3-yl)phenyl)ethan-1-one] showed a pest or weed control at 500 ppm not below 70%.

The molecule `O=C(COc1ccc(Cl)cc1)c1ccc(-c2noc(C(F)(F)F)n2)cc1` [Compound 6, 2-(4-chlorophenoxy)-1-(4-(5-(trifluoromethyl)-1,2,4-oxadiazol-3-yl)phenyl)ethan-1-one] gave a pest or weed control at 500 ppm not below 70%.

`O=C(COc1ccc(Cl)c(C(F)(F)F)c1)c1ccc(-c2noc(C(F)(F)F)n2)cc1` [Compound 9, 2-(4-chloro-3-(trifluoromethyl)phenoxy)-1-(4-(5-(trifluoromethyl)-1,2,4-oxadiazol-3-yl)phenyl)ethan-1-one] showed a pest or weed control at 500 ppm not below 70%.

For `Cc1cccc(OCC(=O)c2ccc(-c3noc(C(F)(F)F)n3)cc2)c1` [Compound 10, 2-(m-tolyloxy)-1-(4-(5-(trifluoromethyl)-1,2,4-oxadiazol-3-yl)phenyl)ethan-1-one], the pest or weed control at 500 ppm was not below 70%.

For `COc1ccccc1OCC(=O)c1ccc(-c2noc(C(F)(F)F)n2)cc1` [Compound 11, 2-(2-methoxyphenoxy)-1-(4-(5-(trifluoromethyl)-1,2,4-oxadiazol-3-yl)phenyl)ethan-1-one], the pest or weed control at 500 ppm was not below 70%.

For `O=C(COc1ccc(Br)c(F)c1)c1ccc(-c2noc(C(F)(F)F)n2)cc1` [Compound 12, 2-(4-bromo-3-fluorophenoxy)-1-(4-(5-(trifluoromethyl)-1,2,4-oxadiazol-3-yl)phenyl)ethan-1-one], the pest or weed control at 500 ppm was not below 70%.

`O=C(CSc1c(Cl)cccc1Cl)c1ccc(-c2noc(C(F)(F)F)n2)cc1` [Compound 13, 2-((2,6-dichlorophenyl)thio)-1-(4-(5-(trifluoromethyl)-1,2,4-oxadiazol-3-yl)phenyl)ethan-1-one] returned a pest or weed control at 500 ppm not below 70%.

As to `COc1cccc(SCC(=O)c2ccc(-c3noc(C(F)(F)F)n3)cc2)c1` [Compound 14, 2-((3-methoxyphenyl)thio)-1-(4-(5-(trifluoromethyl)-1,2,4-oxadiazol-3-yl)phenyl)ethan-1-one], the pest or weed control at 500 ppm was not below 70%.

The molecule `Cc1ccc(C)c(OCC(=O)c2ccc(-c3noc(C(F)(F)F)n3)cc2)c1` [Compound 16, 2-(2,5-dimethylphenoxy)-1-(4-(5-(trifluoromethyl)-1,2,4-oxadiazol-3-yl)phenyl)ethan-1-one] showed a pest or weed control at 500 ppm not below 70%.

Take `O=C(COc1ccc(F)cc1Cl)c1ccc(-c2noc(C(F)(F)F)n2)cc1` [Compound 19, 2-(2-chloro-4-fluorophenoxy)-1-(4-(5-(trifluoromethyl)-1,2,4-oxadiazol-3-yl)phenyl)ethan-1-one]: the pest or weed control at 500 ppm is not below 70%.

On to `O=C(COc1ccc(Cl)cc1Cl)c1ccc(-c2noc(C(F)(F)F)n2)cc1` [Compound 20, 2-(2,4-dichlorophenoxy)-1-(4-(5-(trifluoromethyl)-1,2,4-oxadiazol-3-yl)phenyl)ethan-1-one], for which the pest or weed control at 500 ppm was not below 70%.

Turning to `Cc1ccc(SCC(=O)c2ccc(-c3noc(C(F)(F)F)n3)cc2)cc1` [Compound 22, 2-(p-tolylthio)-1-(4-(5-(trifluoromethyl)-1,2,4-oxadiazol-3-yl)phenyl)ethan-1-one], the pest or weed control at 500 ppm is not below 70%.

On to `COc1ccc(SCC(=O)c2ccc(-c3noc(C(F)(F)F)n3)cc2)cc1` [Compound 23, 2-((4-methoxyphenyl)thio)-1-(4-(5-(trifluoromethyl)-1,2,4-oxadiazol-3-yl)phenyl)ethan-1-one], for which the pest or weed control at 500 ppm was not below 70%.

Regarding `O=C(CSC1CCCC1)c1ccc(-c2noc(C(F)(F)F)n2)cc1` [Compound 24, 2-(cyclopentylthio)-1-(4-(5-(trifluoromethyl)-1,2,4-oxadiazol-3-yl)phenyl)ethan-1-one], the pest or weed control at 500 ppm is not below 70%.

`O=C(CSc1nc2ccccc2o1)c1ccc(-c2noc(C(F)(F)F)n2)cc1` [Compound 25, 2-(benzo[d]oxazol-2-ylthio)-1-(4-(5-(trifluoromethyl)-1,2,4-oxadiazol-3-yl)phenyl)ethan-1-one]: the pest or weed control at 500 ppm is not below 70%.

`Cc1csc(SCC(=O)c2ccc(-c3noc(C(F)(F)F)n3)cc2)n1` [Compound 26, 2-((4-methylthiazol-2-yl)thio)-1-(4-(5-(trifluoromethyl)-1,2,4-oxadiazol-3-yl)phenyl)ethan-1-one]: the pest or weed control at 500 ppm is not below 70%.

Molecule `O=C(CNc1ccc(C(F)(F)F)cc1)c1ccc(-c2noc(C(F)(F)F)n2)cc1` [Compound 28, 1-(4-(5-(trifluoromethyl)-1,2,4-oxadiazol-3-yl)phenyl)-2-((4-(trifluoromethyl)phenyl)amino)ethan-1-one] returned a pest or weed control at 500 ppm not below 70%.

The molecule `O=C(CNc1ccccc1F)c1ccc(-c2noc(C(F)(F)F)n2)cc1` [Compound 29, 2-((2-fluorophenyl)amino)-1-(4-(5-(trifluoromethyl)-1,2,4-oxadiazol-3-yl)phenyl)ethan-1-one] displayed a pest or weed control at 500 ppm not below 70%.

`Cc1ccc(Cl)c(OCC(=O)c2ccc(-c3noc(C(F)(F)F)n3)cc2)c1` [Compound 33, 2-(2-chloro-5-methylphenoxy)-1-(4-(5-(trifluoromethyl)-1,2,4-oxadiazol-3-yl)phenyl)ethan-1-one]: the pest or weed control at 500 ppm was not below 70%.

In turn, `Cc1ccc(OCC(=O)c2ccc(-c3noc(C(F)(F)F)n3)cc2)cc1` [Compound 34, 2-(p-tolyloxy)-1-(4-(5-(trifluoromethyl)-1,2,4-oxadiazol-3-yl)phenyl)ethan-1-one] came in with a pest or weed control at 500 ppm not below 70%.

Consider `O=C(COc1cccc(Cl)c1)c1ccc(-c2noc(C(F)(F)F)n2)cc1` [Compound 35, 2-(3-chlorophenoxy)-1-(4-(5-(trifluoromethyl)-1,2,4-oxadiazol-3-yl)phenyl)ethan-1-one], for which the pest or weed control at 500 ppm was not below 70%.

Take `O=C(COc1ccc(C(F)(F)F)cc1)c1ccc(-c2noc(C(F)(F)F)n2)cc1` [Compound 36, 1-(4-(5-(trifluoromethyl)-1,2,4-oxadiazol-3-yl)phenyl)-2-(4-(trifluoromethyl)phenoxy)ethan-1-one]: the pest or weed control at 500 ppm is not below 70%.

`O=C(COc1cccc(C(F)(F)F)c1)c1ccc(-c2noc(C(F)(F)F)n2)cc1` [Compound 40, 1-(4-(5-(trifluoromethyl)-1,2,4-oxadiazol-3-yl)phenyl)-2-(3-(trifluoromethyl)phenoxy)ethan-1-one]: the pest or weed control at 500 ppm was not below 70%.

In the case of `Cc1cc(F)cc(OCC(=O)c2ccc(-c3noc(C(F)(F)F)n3)cc2)c1` [Compound 41, 2-(3-fluoro-5-methylphenoxy)-1-(4-(5-(trifluoromethyl)-1,2,4-oxadiazol-3-yl)phenyl)ethan-1-one], the pest or weed control at 500 ppm is not below 70%.

`O=C(COc1cc(F)cc(Cl)c1)c1ccc(-c2noc(C(F)(F)F)n2)cc1` [Compound 42, 2-(3-chloro-5-fluorophenoxy)-1-(4-(5-(trifluoromethyl)-1,2,4-oxadiazol-3-yl)phenyl)ethan-1-one] registered a pest or weed control at 500 ppm not below 70%.

In turn, `O=C(COc1ccnc(Cl)c1)c1ccc(-c2noc(C(F)(F)F)n2)cc1` [Compound 44, 2-((2-chloropyridin-4-yl)oxy)-1-(4-(5-(trifluoromethyl)-1,2,4-oxadiazol-3-yl)phenyl)ethan-1-one] showed a pest or weed control at 500 ppm not below 70%.

The molecule `Cc1ccc(C(F)(F)F)c(OCC(=O)c2ccc(-c3noc(C(F)(F)F)n3)cc2)n1` [Compound 45, 2-((6-methyl-3-(trifluoromethyl)pyridin-2-yl)oxy)-1-(4-(5-(trifluoromethyl)-1,2,4-oxadiazol-3-yl)phenyl)ethan-1-one] had a pest or weed control at 500 ppm not below 70%.

Molecule `O=C(COc1cccnc1Cl)c1ccc(-c2noc(C(F)(F)F)n2)cc1` [Compound 46, 2-((2-chloropyridin-3-yl)oxy)-1-(4-(5-(trifluoromethyl)-1,2,4-oxadiazol-3-yl)phenyl)ethan-1-one] had a pest or weed control at 500 ppm not below 70%.

`O=C(COc1ccc(F)nc1)c1ccc(-c2noc(C(F)(F)F)n2)cc1` [Compound 47, 2-((6-fluoropyridin-3-yl)oxy)-1-(4-(5-(trifluoromethyl)-1,2,4-oxadiazol-3-yl)phenyl)ethan-1-one] returned a pest or weed control at 500 ppm not below 70%.

`Cn1ccc(OCC(=O)c2ccc(-c3noc(C(F)(F)F)n3)cc2)n1` [Compound 50, 2-((1-methyl-1H-pyrazol-3-yl)oxy)-1-(4-(5-(trifluoromethyl)-1,2,4-oxadiazol-3-yl)phenyl)ethan-1-one] yielded a pest or weed control at 500 ppm not below 70%.

Source of the values: US12677832B2, “Oxadiazole compounds for controlling or preventing phytopathogenic fungi” (PI INDUSTRIES LTD., priority 2019, dated 2026).
